Reference: US20210261621A1, “Preparation of Dilipid Polymixins and Use Thereof as Antimicrobial Adjuvants” (priority 2018, published 2021)
In brackets after ≈: the same amount, converted by molar mass. Where two headings read alike, the source gives them in different places. Positions of bridges follow the written chain, without caps; N, C: chain ends. Non-standard residues stand in square brackets, D forms with d. Residues, ends and D or L forms follow the SMILES beside them. Dab = NCC[C@H](N)C(=O)O

What was measured:
P. aeruginosa PAO1 [1] = assay type: cell-based, Pseudomonas aeruginosa; conditions: P. aeruginosa PAO1 (wild type)
Excerpt: (§1) Bacterial strains were either obtained from the American Type Culture Collection (ATCC), Canadian National Intensive Care Unit (CAN-ICU) surveillance study or the Canadian Ward Surveillance (CANWARD) study. Strains from both CAN-ICU and CANWARD are isolates recovered from patients diagnosed with a presumed infectious disease that were admitted in a participating medical center across Canada. Efflux-deficient strain PAO200 (lacking MexAB-OprM efflux system) and PA0750 (lacking MexAB-OprM, MexCD-OprJ, MexEF-OprN, MexJK and MexXY efflux systems, and the outer membrane protein OpmH) were kindly gifted by Dr. Ayush Kumar (University of Manitoba).
(§2) The in vitro antibacterial activity of the compounds studied were assessed by broth microdilution susceptibility testing following CLSI guidelines. Bacterial cultures were grown overnight prior to the assay. The overnight grown cultures were diluted in saline to 0.5 McFarland turbidity, followed by 1:50 dilution in Mueller-Hinton broth (MHB) for inoculation to a final concentration of approximately 5×10^5 colony forming units/mL. Testing was performed on 96-well plates where the tested compounds were 2-fold serially diluted in MHB and incubated with equal volumes of bacterial inoculum at 37° C. for 18 h. […] Wells containing MHB with or without bacterial cells were used as positive or negative control, respectively.

P. aeruginosa PAO750 = conditions: P. aeruginosa PAO750, efflux-deficient strain that lacks five pumps and OpmH
Excerpt: (§3) To our curiosity, we explored whether efflux can affect the activity of polymyxins. It is widely accepted that polymyxins disrupt Gram-negative bacterial membranes that result to intracellular component leakage and bacterial cell death. However, for this to occur requires the agent to reach the periplasmic space to interact and disrupt the inner membrane. Active efflux may potentially expel polymyxins out of the periplasm, effectively reducing its periplasmic and intracellular concentrations. To study the effect of efflux on polymyxins in Gram-negative pathogens, we used P. aeruginosa as they inherently overexpress efflux systems such as MexAB-OprM, MexCD-OprJ and MexXY-OprM. Moreover, antibiotic substrates for these efflux systems are mostly characterized. We evaluated and compared the activity of the dilipid polymyxins, colistin and PMBN against wild-type PAO1 and two efflux-deficient P. aeruginosa isogenic mutants (Table 5). The strain PAO200 lacks the MexAB-OprM efflux system while strain PAO750 lacks five clinically-relevant pumps (MexAB-OprM, MexCD-OprJ, MexEF-OprN, MexJK and MexXY) and outer membrane protein OpmH.
as §1, §2

P. aeruginosa PAO200 = test system: P. aeruginosa PAO200
Excerpt: as §3, §1, §2

pig erythrocytes = conditions: red cells of pig, 1 h, 512
Protocol: The ability of the compounds to lyse eukaryotic red blood cells was measured by the amount of hemoglobin released upon incubation with pig erythrocytes, following a published protocol [30]. Briefly, fresh pig blood (generously provided by Dr. Richard Hodges, Director of Animal Care and Veterinary Services of the University of Manitoba) drawn from a pig's antecubital vein was centrifuged at 1000 g for 5 min at 4° C., washed with phosphate-buffered saline (PBS) three times, and re-suspended in the same buffer, consecutively. Compounds at study were 2-fold serially diluted in PBS on a 96-well plate and mixed with equal volumes of erythrocyte solution. Post 1 h incubation at 37° C., the intact cells were pelleted by centrifugation at 1000 g for 5 min at 4° C. Resulting supernatant was then transferred to a new 96-well plate. The hemoglobin released was then measured via an EMax Plus microplate reader (Molecular Devices, USA) at 570 nm wavelength. Erythrocytes in PBS with or without 0.1% Triton X-100 were used as positive or negative control, respectively.

P. aeruginosa PAO1 [2] = test system: P. aeruginosa PAO1; design: MICDrug / MICDrug in combo / MIC of adjuvant in combo: unit not given beside the values
Protocol: The potential of the dilipid polymyxins to serve as an adjuvant in combination with other antibiotics was evaluated against P. aeruginosa PAO1 strain (Tables 4 and 7-12). […] Checkerboard assays were performed with the dilipid polymyxins in combination with twenty-one clinically-used antibiotics. The panel included representatives from the β-lactam, carbapenem, tetracycline, aminoglycoside and fluoroquinolone antibiotic families. Other agents that are used to treat Gram-negative bacterial infection such as fosfomycin, trimethoprim and chloramphenicol were also included. […] Fractional inhibitory concentration (FIC) index was calculated for each combination to measure potential synergism between the two agents. FIC was obtained by dividing the MIC of antibiotic/adjuvant in combination by the MIC of antibiotic/adjuvant alone, while FIC index was calculated by the summation of FIC indices for the antibiotic and adjuvant. An FIC index of ≤0.5, 0.5<x≤4, or >4 denotes for synergistic, additive or antagonistic interaction, respectively. Initially, we assessed the adjuvant properties of PMBN against the panel of 21 antibiotics.
The assay was performed on 96-well plates as previously described. Briefly, the antibiotic at study was 2-fold serially diluted along the x-axis, while the adjuvant was 2-fold serially diluted along the y-axis to create a matrix in which each well consists of a combination of both at different concentrations. Overnight grown bacterial cultures were diluted in saline to 0.5 McFarland turbidity, followed by 1:50 dilution in MHB and inoculation on each well to a final concentration of approximately 5×10^5 colony forming units/mL. Wells containing only MHB with or without bacterial cells were used as positive or negative control, respectively. […] The fractional inhibitory concentration (FIC) of the antibiotic was calculated via dividing the MIC of antibiotic in the presence of adjuvant by the MIC of antibiotic alone. Similarly, the FIC of adjuvant was calculated via dividing the MIC of adjuvant in the presence of antibiotic by the MIC of adjuvant alone. The FIC index was obtained by the summation of both FIC values. The FIC index was then interpreted as synergistic, additive, or antagonistic for values of ≤0.5, 0.5<x<4, or ≥4, respectively.

[3] = healthy volunteers; single dose up to 800 mg or multiple dose up to 600 mg every 8 hours for 14 consecutive days; cited from earlier work

CC(C)C[C@@H]1NC(=O)[C@@H](Cc2ccccc2)NC(=O)[C@H](CCN)NC(=O)[C@@H](NC(=O)[C@H](CCN)NC(=O)[C@@H](N)[C@@H](C)O)CCNC(=O)[C@H]([C@@H](C)O)NC(=O)[C@H](CCN)NC(=O)[C@H](CCN)NC1=O [PMBN, polymyxin B nonapeptide, reference compound] (H-T[Dab][Dab][Dab][dF]L[Dab][Dab]T; lactam 3-C (inferred))
MIC (P. aeruginosa PAO1 [1]): 128 µg/mL (≈ 133 µM) | MIC (P. aeruginosa PAO750): 4 µg/mL (≈ 4.15 µM) | MIC (P. aeruginosa PAO200; P. aeruginosa PAO200, efflux-deficient strain that lacks the MexAB-OprM pump): 2 µg/mL (≈ 2.08 µM) | fold difference in MIC against wild-type PAO1 and efflux-deficient PAO200 (P. aeruginosa PAO200; PAO1 versus PAO200 (lacks MexAB-OprM)): 64 fold | % Hemolysis at 512 μg/mL of polymyxin (pig erythrocytes): 1.1 ± 0.1% | MIC of adjuvant alone (MIC1, MIC2, MIC3, MIC4, MIC5, MICPMBN) (P. aeruginosa PAO1 [2]; adjuvant alone, one value per checkerboard, in µg/mL): 128 | Interpretation (P. aeruginosa PAO1 [2]; combination with Aztreonam): Synergy (An FIC index of ≤0.5, 0.5<x≤4, or >4 denotes for synergistic, additive or antagonistic interaction, respectively) | Interpretation (P. aeruginosa PAO1 [2]; combination with Ceftazidime): Synergy (An FIC index of ≤0.5, 0.5<x≤4, or >4 denotes for synergistic, additive or antagonistic interaction, respectively) | Interpretation (P. aeruginosa PAO1 [2]; combination with Chloramphenicol): Synergy (An FIC index of ≤0.5, 0.5<x≤4, or >4 denotes for synergistic, additive or antagonistic interaction, respectively) | Interpretation (P. aeruginosa PAO1 [2]; combination with Ciprofloxacin): Synergy (An FIC index of ≤0.5, 0.5<x≤4, or >4 denotes for synergistic, additive or antagonistic interaction, respectively) | Interpretation (P. aeruginosa PAO1 [2]; combination with Clindamycin): Synergy (An FIC index of ≤0.5, 0.5<x≤4, or >4 denotes for synergistic, additive or antagonistic interaction, respectively) | Interpretation (P. aeruginosa PAO1 [2]; combination with Doripenem): Synergy (An FIC index of ≤0.5, 0.5<x≤4, or >4 denotes for synergistic, additive or antagonistic interaction, respectively) | Interpretation (P. aeruginosa PAO1 [2]; combination with Doxycycline): Synergy (An FIC index of ≤0.5, 0.5<x≤4, or >4 denotes for synergistic, additive or antagonistic interaction, respectively) | Interpretation (P. aeruginosa PAO1 [2]; combination with Fosfomycin): Synergy (An FIC index of ≤0.5, 0.5<x≤4, or >4 denotes for synergistic, additive or antagonistic interaction, respectively) | Interpretation (P. aeruginosa PAO1 [2]; combination with Gentamicin): Additive (An FIC index of ≤0.5, 0.5<x≤4, or >4 denotes for synergistic, additive or antagonistic interaction, respectively) | Interpretation (P. aeruginosa PAO1 [2]; combination with Linezolid): Synergy (An FIC index of ≤0.5, 0.5<x≤4, or >4 denotes for synergistic, additive or antagonistic interaction, respectively) | Interpretation (P. aeruginosa PAO1 [2]; combination with Meropenem): Synergy (An FIC index of ≤0.5, 0.5<x≤4, or >4 denotes for synergistic, additive or antagonistic interaction, respectively) | Interpretation (P. aeruginosa PAO1 [2]; combination with Minocycline): Synergy (An FIC index of ≤0.5, 0.5<x≤4, or >4 denotes for synergistic, additive or antagonistic interaction, respectively) | Interpretation (P. aeruginosa PAO1 [2]; combination with Moxifloxacin): Synergy (An FIC index of ≤0.5, 0.5<x≤4, or >4 denotes for synergistic, additive or antagonistic interaction, respectively) | Interpretation (P. aeruginosa PAO1 [2]; combination with Novobiocin): Synergy (An FIC index of ≤0.5, 0.5<x≤4, or >4 denotes for synergistic, additive or antagonistic interaction, respectively) | Interpretation (P. aeruginosa PAO1 [2]; combination with Piperacillin): Synergy (An FIC index of ≤0.5, 0.5<x≤4, or >4 denotes for synergistic, additive or antagonistic interaction, respectively) | Interpretation (P. aeruginosa PAO1 [2]; combination with Pleuromutilin): Synergy (An FIC index of ≤0.5, 0.5<x≤4, or >4 denotes for synergistic, additive or antagonistic interaction, respectively) | Interpretation (P. aeruginosa PAO1 [2]; combination with Rifampicin): Synergy (An FIC index of ≤0.5, 0.5<x≤4, or >4 denotes for synergistic, additive or antagonistic interaction, respectively) | Interpretation (P. aeruginosa PAO1 [2]; combination with Streptomycin): Additive (An FIC index of ≤0.5, 0.5<x≤4, or >4 denotes for synergistic, additive or antagonistic interaction, respectively) | Interpretation (P. aeruginosa PAO1 [2]; combination with Tobramycin): Additive (An FIC index of ≤0.5, 0.5<x≤4, or >4 denotes for synergistic, additive or antagonistic interaction, respectively) | Interpretation (P. aeruginosa PAO1 [2]; combination with Trimethoprim): Synergy (An FIC index of ≤0.5, 0.5<x≤4, or >4 denotes for synergistic, additive or antagonistic interaction, respectively) | Interpretation (P. aeruginosa PAO1 [2]; combination with Vancomycin): Synergy (An FIC index of ≤0.5, 0.5<x≤4, or >4 denotes for synergistic, additive or antagonistic interaction, respectively) | MIC of adjuvant in combo (P. aeruginosa PAO1 [2]; in combination with Aztreonam): (4) | MIC of adjuvant in combo (P. aeruginosa PAO1 [2]; in combination with Ceftazidime): (8) | MIC of adjuvant in combo (P. aeruginosa PAO1 [2]; in combination with Chloramphenicol): (1) | MIC of adjuvant in combo (P. aeruginosa PAO1 [2]; in combination with Ciprofloxacin): (32) | MIC of adjuvant in combo (P. aeruginosa PAO1 [2]; in combination with Clindamycin): (0.5) | MIC of adjuvant in combo (P. aeruginosa PAO1 [2]; in combination with Doripenem): (8) | MIC of adjuvant in combo (P. aeruginosa PAO1 [2]; in combination with Doxycycline): (4) | MIC of adjuvant in combo (P. aeruginosa PAO1 [2]; in combination with Fosfomycin): (32) | MIC of adjuvant in combo (P. aeruginosa PAO1 [2]; in combination with Gentamicin): (64) | MIC of adjuvant in combo (P. aeruginosa PAO1 [2]; in combination with Linezolid): (4) | MIC of adjuvant in combo (P. aeruginosa PAO1 [2]; in combination with Meropenem): (16) | MIC of adjuvant in combo (P. aeruginosa PAO1 [2]; in combination with Minocycline): (8) | MIC of adjuvant in combo (P. aeruginosa PAO1 [2]; in combination with Moxifloxacin): (32) | MIC of adjuvant in combo (P. aeruginosa PAO1 [2]; in combination with Novobiocin): (4) | MIC of adjuvant in combo (P. aeruginosa PAO1 [2]; in combination with Piperacillin): (8) | MIC of adjuvant in combo (P. aeruginosa PAO1 [2]; in combination with Pleuromutilin): (0.5) | MIC of adjuvant in combo (P. aeruginosa PAO1 [2]; in combination with Rifampicin): (0.5) | MIC of adjuvant in combo (P. aeruginosa PAO1 [2]; in combination with Streptomycin): (0.5) | MIC of adjuvant in combo (P. aeruginosa PAO1 [2]; in combination with Tobramycin): (0.5) | MIC of adjuvant in combo (P. aeruginosa PAO1 [2]; in combination with Trimethoprim): (4) | MIC of adjuvant in combo (P. aeruginosa PAO1 [2]; in combination with Vancomycin): (1) | adjuvant activity (potentiation of the panel of 21 antibiotics) (P. aeruginosa PAO1 [2]; result in words): potentiated all antibiotics tested except for those belonging to the aminoglycoside family

CC(=O)N[C@H](C(=O)N[C@H](CO)C(=O)N[C@H]1CCNC(=O)[C@H]([C@@H](C)O)NC(=O)[C@H](CCN)NC(=O)[C@H](CCN)NC(=O)[C@H](CC(C)C)NC(=O)[C@@H](Cc2ccccc2)NC(=O)[C@H](CCN)NC1=O)[C@@H](C)O [SPR741] (Ac-T[dS][Dab][Dab][dF]L[Dab][Dab]T; lactam 3-C)
tolerability [3]: well-tolerated
